Assays:
SW480 = experiment: Cytotoxicity against human SW480 cells after 48 hrs by MTT assay; assay type: functional, cell-based; conditions: SW480, 48 h
A549 = experiment: Cytotoxicity against human A549 cells after 48 hrs by MTT assay; assay type: functional, cell-based; conditions: A549, 48 h
SMMC-7721 = experiment: Cytotoxicity against human SMMC7721 cells after 48 hrs by MTT assay; assay type: functional, cell-based; conditions: SMMC-7721, 48 h
MCF7 = experiment: Cytotoxicity against human MCF7 cells after 48 hrs by MTT assay; assay type: functional, cell-based; conditions: MCF7, 48 h
[1] = system: Human immunodeficiency virus 1; experiment: Antiviral activity against HIV1 3B infected in human C8166 cells assessed as inhibition of viral-induced cytopathogenicity by syncytium formation assay; assay type: functional, organism-based; conditions: Human immunodeficiency virus 1, 3B

SMILES | IC50 (SW480) [µM] | IC50 (A549) [µM] | IC50 (SMMC-7721) [µM] | IC50 (MCF7) [µM] | EC50 [1] [µM]
C/C(=C\CC[C@@H](C)[C@H]1CC[C@@]2(C)[C@@H]3CC[C@H]4C(C)(C)C(=O)CC[C@]4(C)C3=C[C@@H](O)[C@]12C)C(=O)O | > 40 | > 40 | > 40 | > 40 | 54.8
C/C(=C\CC[C@@H](C)C(=O)CC[C@]1(C)C(=O)C=C2[C@H]1CC[C@H]1C(C)(C)C(=O)CC[C@]21C)C(=O)O | > 40 | > 40 | > 40 | > 40 | 30.3
CC1=C[C@]2(O)[C@@H](CC[C@H]3C(C)(C)C(=O)CC[C@@]32C)[C@@](C)(CCC(=O)[C@H](C)CC/C=C(\C)C(=O)O)C1=O | > 40 | > 40 | > 40 | > 40 | 
Cc1cn([C@H]2C[C@H](N=[N+]=[N-])[C@@H](CO)O2)c(=O)[nH]c1=O [ZIDOVUDINE] |  |  |  |  | 0.02
